According to patent publication US20060089408A1, “Method of treating blepharospasm with a prostaglandin derivative” (priority 2004, published 2006):
“And” between values parts separate entries of the source, which are not always exact repeats. Equal values may be shown once.

Tested on: patients with blepharospasm
Assay: Observational prospective case series of 21 consecutive patients with blepharospasm treated with Latanoprost
Format: in vivo, human
Procedure: It is the inventor's unique discovery that latanoprost improves some forms of blepharospasm. Over a period of three years starting from 2000, 21 patients with various forms of blepharospasm were treated with latanoprost. In more than 75% of the cases observed, the symptoms of blepharospasm were much improved ranging from mild resolution to complete improvement.
Observational prospective case series of 21 consecutive patients comprising mostly Asian descent with blepharospasm were treated with Latanoprost for a mean follow-up period of 1.5 years. Assessment of therapy was made by symptomatic evaluation and clinical examination. Severity of patient's initial symptoms ranged from myokimia to blepharospasm with facial dystonia.
The patients were pooled from the Los Angeles County metropolitan area and the Pacific Rim and all of the patients are of Chinese descent. The patients were excluded if they had secondary causes of blepharospasm such as light sensitivity, lid hygiene (blepharitis), dry eyes, and emotional or physical psychological stressors.
Therapeutic intervention involved administration of one drop of Latanoprost in the affected eye at night. Adverse effects were assessed by the patient's subjective feedback and physician's examination. Outcome assessment was determined mainly by subjective reporting by the patient.
Table 1 illustrates the physician's grading scale, wherein grade I signified blepharospasm isolated just to the eyes; Grade II described blepharospasm with some form of facial dystonia; and Grade III described blepharospasm with facial dystonia extending to the neck region
Table 2 illustrates patient's subjective evaluation of improvement that subjective opinion of improvement is on a scale ranging from 0 to 10, where zero indicated no improvement and 10 indicated complete resolution.
Table 3 illustrates demographics and clinical data of the patients involved in the above clinical study. In Table 3, F represent female, M represent male, duration represents duration of treatment, OU represents blepharospasm in both eyes, OD represents blepharospasm in right eye only, and OS represents blepharospasm in left eye. Date start illustrates the date starting treatment of prostaglandin derivatives, improvement illustrates the time required for first noticeable improvement, while scale imp represents scale of improvement according to the subjective evaluation grading as shown in Table 2.

## CC(C)OC(=O)CCC/C=C\C[C@@H]1[C@@H](CC[C@@H](O)CCc2ccccc2)[C@H](O)C[C@@H]1O [Latanoprost, isopropyl-(Z)-7[(1R,2R,3R,5S)3,5-dihydroxy-2-[(3R)-3-hydroxy-5-phenylpentyl]cyclopentyl]-5-heptenoate]
21 consecutive patients, mean follow-up 1.5 years
  patients who reported moderate to complete resolution of symptoms after treatment: over 75%
21 patients with various forms of blepharospasm, three years starting from 2000
  cases in which symptoms of blepharospasm were much improved, ranging from mild resolution to complete improvement: more than 75%
Case 1, 30 years history, right eye, 1.5 ug per day, after 3 weeks of treatment
  change in spasm of eyelids and face: considerable decrease in spasm of their eyelids and face
After treatment, 21 patients
  patients who noted subjective improvement in their blepharospasm: 19 of 21
  patients who reported no change: 2 patients
General statement on the series
  duration of treatment required before effects were seen: approximately 2 months
Individual patient, one drop in the affected eye at night
  Improvement (time required for first noticeable improvement): 2 months (13×) and 1 months (6×)
Individual patient, scale 0 to 10: 0 no improvement, 5 50% improvement, 10 complete resolution, one drop in the affected eye at night
  Scale imp (scale of improvement, patient's subjective evaluation grading): 5 (6×) and 10 (2×) and 8 (6×) and 7 and 9 (3×) and 6 and 0 (2×)
Whole series of 21 patients
  time at which noticeable improvements occurred after initiation of treatment: 1-2 months
Whole series, subjective scale 0 to 10
  average amount of improvement: 6.95
